Our source for the IC50 values is patent publication US20210047290A1, “SPIRO COMPOUND AS INDOLEAMINE-2,3-DIOXYGENASE INHIBITOR” (SHANGHAI INSTITUTE OF ORGANIC CHEMISTRY, CHINESE ACADEMY OF …, priority 2018, published 2021).

Test [1] concerns the target T1, IDO enzyme (Homo sapiens, UniProt P14902).
T1 construct: made in house; host or cells: E. coli BL21 (pET28a-IDO plasmid)
Description: IDO enzyme inhibitory activity test. It is filed as biochemical. The note with it: recombinant IDO, D-Trp substrate, reading at 321 nm for 40 min. As for the experimental part:
(1) Induced Expression and Purification Method of IDO Protein
Firstly, DO gene was amplified with PCR, and the amplified PCR product was recycled. Digestion (2 h under 37° C.), gel running and recycling were carried out on the pET28a plasmid (purchased from Shanghai Baomanbio Co., Ltd.) and IDO gel with two restriction enzymes (EcoR I and Xho I). T4 ligase was connected with the product overnight, added into DH5α competence, placed on the ice for 30 min and subjected to thermal shock at 42° C. for 90 s.
BL21 which contained pET28a-IDO plasmid was shaken vigorously at 37° C. till OD600 was 0.6-0.8, added into hemin (final concentration: 40 μM) and 0.5 mM IPTG (isopropyl-3-D-IPTG) and induced under 16° C. for 20 h; after induction, thallus were collected centrifugally at 4° C. and 6,000 rpm, washed with 50 mM PBS (pH 7.5) and collected again centrifugally.
The collected thallus were suspended again with buffer solution (50 mM PBS pH 7.5). An appropriate amount of 100×PMSF was added. The thallus were disrupted with cell disruption instrument (1,400 bar) at 4° C. for three times. The split bacteria were centrifuged at 18,000×g for 45 min. The sediment was removed but supernatant was retained and filtered with a 0.45 μm film at 4° C.; the nickel column was balanced with lysis buffer (50 mM PBS pH7.5) by 3 column volumes.
The supernatant was loaded on the nickel column and washed with wash solution (50 mM PBS pH7.5, 50 mM imidazole) by 4 column volume. Finally, protein was eluted with eluant (50 mM PBS pH7.5, 250 mM imidazole); dialyzed for 6 h with dialysis solution (50 mM PBS pH7.5), concentrated, sub-packaged, quickly frozen with liquid nitrogen and stored at −80° C. for backup.
(2) Test Method for IDO Enzyme Inhibitory Activity
Firstly, the compound was diluted by triple gradient. 1 μL of each concentration was added into a 96-well plate; 50 μL of IDO Enzyme solution PBS (pH 7.5; final concentration: 50 mM) was added: 25 μL of substrate 1 (methylene blue, final concentration: […]; catalase, final concentration: 0.2 μg/L; PBS (pH 7.5; final concentration: 50 mM) mixture and 25 μL of substrate 2 (D-Trp, final concentration: 1.5 mM; sodium ascorbate, final concentration: 20 mM; PBS (pH 7.5), final concentration 50 mM) mixture were added for starting the reaction. Finally, OOD321 nm reading was carried out for 40 min.

The target in test [2] is T2, IDO in Hela cells (Homo sapiens, UniProt P14902).
T2 construct: endogenous in cells; host or cells: HeLa cells stimulated with human interferon γ
Briefly: Test of cellular activity (kynurenine formation in interferon γ stimulated Hela cells). Type of test: cell-based. The note with it: head prints IPS cells, method: Hela cells, 48 h incubation, read at 480 nm. As for the experimental part: (3) Test Method of Cellular Activity
Hela cells (80 μL) was inoculated on a 96-well plate (5×10^3 for each well) to grow overnight. After the compound was diluted the next day, 1 μL of diluent and 100 μL of culture medium which contains human interferon γ (final concentration: 50 ng/m) were added into the 96-well plate to make the final volume reach […]. After incubating for 48 h, 80 μL of supernate was transferred from each well to a new […]. 10 μL 6.1N trichloroacetic acid was added into each well for mixing and incubation at 50° C. for 30 min, and […] N formyl-kynurenin into kynurenine. The reaction mixture was centrifuged at 2,500 rpm for 10 min, 70 μL of supernatant of each well was transferred to a new 96-well plate and mixed with 100 μL of 2% (w/v) dimethylaminobenzaldehyde acetic acid solution. After placing for 5-10 min, measurement was carried out at 480 nm with the SPECTRAmax i13 reader.

T2 sequence (P14902 whole entry): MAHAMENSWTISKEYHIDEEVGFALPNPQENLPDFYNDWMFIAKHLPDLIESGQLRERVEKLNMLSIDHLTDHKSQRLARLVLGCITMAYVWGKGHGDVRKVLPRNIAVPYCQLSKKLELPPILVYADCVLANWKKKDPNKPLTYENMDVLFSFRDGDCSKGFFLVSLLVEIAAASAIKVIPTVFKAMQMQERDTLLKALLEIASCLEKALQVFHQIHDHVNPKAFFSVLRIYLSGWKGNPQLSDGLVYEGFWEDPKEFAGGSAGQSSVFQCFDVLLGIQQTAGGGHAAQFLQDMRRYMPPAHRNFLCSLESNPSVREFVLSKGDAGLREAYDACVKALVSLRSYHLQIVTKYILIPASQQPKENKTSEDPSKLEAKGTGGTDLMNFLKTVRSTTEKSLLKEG
T1 sequence (P14902 whole entry): as above

Regarding `O=C(Nc1ccc(Cl)cc1)C1CC12CCC(c1ccnc3ccccc13)CC2` (racemic) [Example 2B, (±)-(cis/trans)-N-(4-chlorophenyl)-6-(quinolin-4-yl)spiro[2.5]octane-1-carboxamide], the IC50 in test [1] amounted to 0.5 µM.

As to `O=C(Nc1ccccc1)C1CC12CCC(c1ccnc3ccc(F)cc13)CC2` (racemic) [Example 7, (±)-(cis/trans)-6-(6-fluoroquinolin-4-yl)-N-phenylspiro[2.5]octane-1-carboxamide], in test [1], the IC50 amounted to 0.99 µM.

For `O=C(Nc1ccc(Cl)cc1)NC1CC12CCC(c1ccnc3ccc(F)cc13)CC2` (racemic) [Example 9, (±)-(cis/trans)-1-(4-chlorophenyl)-3-(6-(6-fluoroquinolin-4-yl)spiro[2.5]octan-1-yl)urea], in test [1], the half-maximal inhibitory concentration (IC50) is 3 µM.

For `O=C(Nc1ccc(Cl)cc1)NC1CCC12CCC(c1ccnc3ccc(F)cc13)CC2` (racemic) [Example 11A, (±) 1-(4-chlorophenyl)-3-(7-(6-fluoroquinolin-4-yl)spiro[3.5]nonan-1-yl)urea], the half-maximal inhibitory concentration (IC50) in test [1] amounted to 6.9 µM.

On to `O=C(Nc1ccc(Cl)cc1)NC1CCC12CCC(c1ccnc3ccc(F)cc13)CC2` (racemic) [Example 11B, (±) 1-(4-chlorophenyl)-3-(7-(6-fluoroquinolin-4-yl)spiro[3.5]nonan-1-yl)urea], for which the IC50 in test [1] was 2.7 µM.

For `O=C(NC1CCC12CCC(c1ccnc3ccc(F)cc13)CC2)c1ccc(Cl)cc1` (racemic) [Example 12A, (±) 4-chloro-N-(7-(6-fluoroquinolin-4-yl)spiro[35]nonan-1-yl)benzamide], the 50% inhibitory concentration (IC50) in test [1] is 1.2 µM.

With `O=C(Nc1cccc(Br)c1)C1CCC12CCC(c1ccnc3ccc(F)cc13)CC2` (racemic) [Example 14A, (±)-N-(3-bromophenyl)-7-(6-fluoroquinolin-4-yl)spiro[3.5]nonane-1-carboxamide], the IC50 in test [1] turned out to be 7.6 µM.

Consider `O=C(Nc1cccc(Br)c1)C1CCC12CCC(c1ccnc3ccc(F)cc13)CC2` (racemic) [Example 14B, (±)-N-(3-bromophenyl)-7-(6-fluoroquinolin-4-yl)spiro[3.5]nonane-1-carboxamide], for which the half-maximal inhibitory concentration (IC50) in test [1] was determined as 7 µM.

Take `O=C(Nc1ccc(Cl)cc1)NC1CC2(CCC(c3ccnc4ccc(F)cc34)CC2)C1` (racemic) [Example 16, (±) 1-(4-chlorophenyl)-3-(7-(6-fluoroquinolin-4-yl)spiro[3.5]nonan-2-yl)urea]: the IC50 in test [1] amounted to 3.2 µM.

On to `O=C(NC1CC2(CCC(c3ccnc4ccc(F)cc34)CC2)C1)c1ccc(Cl)cc1` (racemic) [Example 17, (±) 4-chloro-N-(7-(6-fluoroquinolin-yl)spiro[3.5]nonan-2-yl)benzamide], for which, in test [1], the IC50 stood at 0.48 µM.

As for `O=C(Nc1ccc(Cl)cc1)C1CCC12CCC(c1ccnc3ccc(F)cc13)CC2` (single isomer, unassigned) [Example 10B, (±) N-(4-chlorophenyl)-7-(6-fluoroquinolin-4-yl)spiro[3.5]nonane-1-carboxamide], in test [1], the IC50 was 2.1 µM.

As to `O=S(=O)(NC1CCC12CCC(c1ccnc3ccc(F)cc13)CC2)c1ccc(Cl)cc1` (single isomer, unassigned) [Example 13A, (±) 4-chloro-N-(7-(6-fluoroquinolin-4-yl)spiro[3.5]nonan-1-yl)benzenesulfonamide], the IC50 in test [1] worked out at 20 µM.

Take `O=S(=O)(NC1CCC12CCC(c1ccnc3ccc(F)cc13)CC2)c1ccc(Cl)cc1` (single isomer, unassigned) [Example 13B, (±) 4-chloro-N-(7-(6-fluoroquinolin-4-ylspiro[3.5]nonan-1-yl)benzenesulfonamide]: the half-maximal inhibitory concentration (IC50) in test [1] is 157 µM.

Take `O=C(Nc1ccc(Cl)cc1)C1CCC2(CC1)CC(c1ccnc3ccc(F)cc13)C2` (single isomer, unassigned) [Example 22A, N-(4-chlorophenyl)-2-(6-fluoroquinoline-4-yl)spiro[3.5]nonane-7-carboxamide]: the IC50 in test [1] turned out to be 4.16 µM.

On to `O=C(Nc1ccc(Cl)cc1)C1CCC2(CC1)CC(c1ccnc3ccc(F)cc13)C2` (single isomer, unassigned) [Example 22B, N-(4-chlorophenyl)-2-(6-fluoroquinoline-4-yl)spiro[3.5]nonane-7-carboxamide], for which the IC50 in test [1] was 3.44 µM.

On to `O=C(Nc1ccc(F)c(Cl)c1)C1CC2(CCC(c3ccnc4ccc(F)cc34)CC2)C1` (single isomer, unassigned) [Example 38, N-(3-chloro-4-fluorophenyl)-7-(6-fluoroquinoline-4-yl)spiro[3.5]nonane-2-carboxamide], for which the IC50 in test [2] was greater than 0.01 µM.

`O=C(Nc1ccc(F)c(F)c1)C1CC2(CCC(c3ccnc4ccc(F)cc34)CC2)C1` (single isomer, unassigned) [Example 40, N-(3,4-difluorophenyl)-7-(6-fluoroquinoline-4-yl)spiro[3.5]nonane-2-carboxamide]: the IC50 in test [2] is 0.00305 µM.

`O=C(Nc1ccccc1C(F)(F)F)C1CC2(CCC(c3ccnc4ccc(F)cc34)CC2)C1` (single isomer, unassigned) [Example 41, 7-(6-fluoroquinoline-4-yl)-N-(2-(trifluoromethyl)phenyl)spiro[3.5]nonane-2-carboxamide] displayed an IC50 in test [2] greater than 0.01 µM.

For the compound `O=C(Nc1ccc(Cl)cn1)C1CC2(CCC(c3ccnc4ccc(F)cc34)CC2)C1` (single isomer, unassigned) [Example 42, N-(5-chloropyridine-2-yl)-7-(6-fluoroquinoline-4-yl)spiro[3.5]nonane-2-carboxamide], the IC50 in test [2] is 0.0095 µM.

Take `O=C(Nc1ccc(-c2ccccc2)cc1)C1CC2(CCC(c3ccnc4ccc(F)cc34)CC2)C1` (single isomer, unassigned) [Example 43, N-([1,1′-biphenyl]-4-yl)-7-(6-fluoroquinolin-4-yl)spiro[3.5]nonane-2-carboxamide]: the IC50 in test [2] is 0.00307 µM.

For the compound `O=C(Nc1cccc(-c2ccccc2)c1)C1CC2(CCC(c3ccnc4ccc(F)cc34)CC2)C1` (single isomer, unassigned) [Example 44, N-([1,1′-biphenyl]-3-yl)-7-(6-fluoroquinolin-4-yl)spiro[3.5]nonane-2-carboxamide], the IC50 in test [2] was greater than 0.01 µM.

`O=C(Nc1ccc(C(F)(F)F)c(Cl)c1)C1CC2(CCC(c3ccnc4ccc(F)cc34)CC2)C1` (single isomer, unassigned) [Example 45, N-(3-chloro-4-(trifluoromethyl)phenyl)-7-(6-fluoroquinoline-4-yl)spiro[3.5]nonane-2-carboxamide] gave an IC50 in test [2] greater than 0.01 µM.

`O=C(Nc1ccccc1F)C1CC2(CCC(c3ccnc4ccc(F)cc34)CC2)C1` (single isomer, unassigned) [Example 46, N-(2-fluorophenyl)-7-(6-fluoroquinoline-4-yl)spiro[3.5]nonane-2-carboxamide]: the concentration for half-maximal inhibition (IC50) in test [2] came out at 0.00274 µM.

Regarding `O=C(Nc1ccccc1Br)C1CC2(CCC(c3ccnc4ccc(F)cc34)CC2)C1` (single isomer, unassigned) [Example 47, N-(2-bromophenyl)-7-(6-fluoroquinoline-4-yl)spiro[3.5]nonane-2-carboxamide], the half-maximal inhibitory concentration (IC50) in test [2] is greater than 0.01 µM.

Take `O=C(Nc1ccncc1)C1CC2(CCC(c3ccnc4ccc(F)cc34)CC2)C1` (single isomer, unassigned) [Example 48]: the IC50 in test [2] is greater than 0.01 µM.

Compound `N#Cc1ccc(NC(=O)C2CC3(CCC(c4ccnc5ccc(F)cc45)CC3)C2)cc1` (single isomer, unassigned) [Example 49, N-(4-cyanophenyl)-7-(6-fluoroquinolin-4-yl)spiro[3.5]nonane-2-carboxamide] returned a 50% inhibitory concentration (IC50) in test [2] of 0.00132 µM.

In the case of `O=C(Nc1cccc(C(F)(F)F)c1)C1CC2(CCC(c3ccnc4ccc(F)cc34)CC2)C1` [Example 39, (2S,4s,7S)-7-(6-fluoroquinoline-4-yl)-N-(3-(trifluoromethyl)phenyl)spiro[3.5]nonane-2-carboxamide], the IC50 in test [2] is greater than 0.01 µM.
